Patent publication US11607461B2, “Compositions and methods for genetically modifying myosin phosphatase target subunit (Mypt1) gene for lowering blood pressure” (University of Maryland, Baltimore, priority 2016, dated 2023)

Legend:
[1] = tested on: First-order mesenteric arteries (MA1); experiment: Wire myography: relaxation to 8-Br-cGMP of α-toxin permeabilized, calcium-clamped arteries; parameters: species or system mouse; conditions: for EC50: α-toxin permeabilized, pCa6
Text: (§1) First-order mesenteric arteries (2 mm length; 200-250 μm ID) were dissected free of connective tissue in a HEPES-bicarbonate physiological saline solution containing the following concentrations (in mM): 112 NaCl, 25.7 NaHCO3, 4.9 KCl, 2.0 CaCl2, 1.2 MgSO4, 1.2 KH2PO4, 11.5 glucose, and 10 HEPES. The solution was at pH 7.4 and maintained at 37 C for experiments. Arteries were mounted on a 4-chamber wire myograph (Model 610M, Danish Myo Technology, Aarhus, Denmark). Force was continuously recorded and measured at steady state. Starting tension (IC90) was equally applied to all arteries as previously described (Reho et al., Am J Physiol Heart Circ Physiol 307: H563-573, 2014). Arteries were then primed with 2 separate dose of phenylephrine (10 μM) and allowed to equilibrate for 20 minutes in fresh, heated HEPES-bicarbonate buffer. Intact arteries were subjected to dose response to phenylephrine (α-adrenergic agonist; 1 nM-100 μM), U46619 (thromboxane mimetic; 1 nM-10 μM), and angiotensin II (1 nM-10 μM). Maximal response of MAs to depolarization was assessed with 100 mM KCl. A subset of arteries was permeabilized with α-toxin (1000 U/mL) and subjected to calcium clamp in high relaxing solution (pCa9) containing the following (in mM): 60 KMS, 5 EGTA, 0.02 CaCl2, 9.26 MgCl2, 5.2 Na2ATP, 25 creatine phosphate, and 25 BES with pH 7.1 (intracellular pH) by 1N KOH. Permeabilized arteries were subjected to dose response of calcium. Phenylephrine-induced calcium sensitization was performed under calcium clamp at a sub-maximal concentration of calcium (pCa6; 1 μM) with intracellular calcium stores depleted by preincubation of arteries with 10 μM A-23187. Vessels were activated with 10 μM phenylephrine with or without preincubation with L-NAME (100 μM). Vasorelaxation responses to the NO donor DEA/NO were assessed in intact arteries activated with a sub-maximal concentration of phenylephrine (10 μM). Dose response to 8-Br-cGMP (1 nM-100 μM) were assessed in α-toxin permeabilized, calcium-clamped (pCa6; 1 μM) arteries. Relaxation data are presented as percent of maximal force. All chemicals were purchased from Sigma-Aldrich (St Louis, Mo.).
(§2) All data are presented as means±SEM. Data were analyzed and graphed using SigmaPlot software (SYSTAT, Chicago, Ill.). mRNA and protein data and mean arterial pressures were analyzed using a one way ANOVA. Vascular function data were analyzed via One way ANOVA and a Bonferroni post-hoc test or Two way repeated measures ANOVA and a Bonferroni post-hoc test. EC50 were calculated via standard curve analysis. Significance was accepted with a p<0.05.

[2] = tested on: First-order mesenteric arteries (MA1); experiment: Wire myography: vasorelaxation to DEA/NO of intact arteries activated with phenylephrine; parameters: species or system mouse; conditions: for EC50: pre-constriction with PE 10 μM, read-out: EC50 relaxation to DEA/NO
Text: as §1, with “Permeabilized arteries were subjected to dose response of calcium. Phenylephrine-induced calcium sensitization was performed under calcium clamp at a sub-maximal concentration of calcium (pCa6; 1 μM) with intracellular calcium stores depleted by preincubation of arteries with 10 μM A-23187. Vessels were activated with 10 μM phenylephrine with or without preincubation with L-NAME (100 μM).” left out, “Relaxation data are presented as percent of maximal force. All chemicals were purchased from Sigma-Aldrich (St Louis, Mo.).” left out
as §2, with “Significance was accepted with a p<0.05.” left out

[3] = tested on: First-order mesenteric arteries (MA1); experiment: Wire myography: force generation, dose response to phenylephrine in intact arteries; conditions: Mus musculus, read-out: EC50 force generation to PE
Text: as §1, §2

[4] = tested on: PPP1R12A (Mypt1) exon 24 flanking region; experiment: Surveyor nuclease assay on genomic PCR products of transfected HEK293T cells; assay type: cell-based, human; conditions: constructs tested individually; for Surveyor nuclease products (sizes): control ~750 bp
Protocol: HEK293T cells were seeded at a density of 1×10^5 cells/well in 24-well plates. After 24 hours, while cell confluence reached approximately 80%, cells were transfected with 1µg of sgRNA-px601 vector (experimental conditions) or px601 vector (empty vector) or pIRES-EYFP vector (positive transfection control). All transfections were performed in duplicates using Lipofectamine® 3000 Reagent (Life Technologies/ThermoFisher Scientific, Waltham, Mass.) according to the manufacturer's protocol. Twenty-four hours after transfection, a volume of 0.5 mL of culture medium was added per well (reaching a total volume of 1 mL per well). Cells were harvested 72 hours after transfection; culture medium was removed, cells were trypsinized using Gibco™ TrypLE™ Express (Life Technologies/ThermoFisher Scientific), pelleted and cell pellets were stored at −20° C. The transfection efficiency was evaluated immediately prior to harvesting of cells, by inspection of HEK293T cells transfected with pIRES-EYFP vector using a Leica MZ-FLIII fluorescence microscope equipped with a GFP filter set (Leica Microscopy Systems Ltd., Heerbrugg, Switzerland).
Genomic DNA was purified from the transfected cells using PureLink™ Genomic DNA Mini Kit (Invitrogen/ThermoFisher Scientific, Waltham, Mass.) as per the manufacturer's protocol. In order to investigate if genome editing occurred, locus PCR amplifying a 754 pb-region flanking the exon 24 of PPP1R12A gene was performed using primers MYPT12AE24F 5′-[…]-3′ (SEQ ID NO:3) (intronic region 155894 bp to 155913 bp on PPP1R12A ENSG00000058272) and MYPT12AE24R 5′-[…]-3′ (SEQ ID NO:4) (intronic region 156626 bp to 156647 bp on PPP1R12A ENSG00000058272). PCR conditions were as follows: 95° C. 5 min, then 95° C. 30 s, 53° C. 45 s, 72° C. 60 s for 30 cycles, with 5 min of final extension step at 72° C. PCR products were resolved by 2% agarose gel electrophoresis. When PCR product size was shorter than the control PCR product, genome editing occurred. For PCR products that could not be separated from the control product on 2% agarose gel due to the low resolution of the gel, a surveyor nuclease assay was performed using the Surveyor® Mutation Detection Kit (Integrated DNA Technologies, Coralville, Iowa) as per manufacturer's protocol for better visualization of the edits. The Surveyor® Mutation Detection Kit uses an endonuclease that cleaves DNA with high specificity at sites of mismatches and other distortions, allowing the detection of known and unknown DNA mutations. Briefly, target DNA is amplified by PCR from both wild-type (WT) and mutated DNA, WT and mutant DNA are then hybridized to form heteroduplexes, which are subsequently cleaved by the surveyor endonuclease. When no mutation is present, only homoduplexes are formed and no endonuclease-mediated cleavage is observed.

[5] = E24 cKO MA1s, highest concentration

Q: For `Nc1nc2c(nc(Br)n2[C@@H]2O[C@@H]3COP(=O)(O)O[C@H]3[C@H]2O)c(=O)[nH]1` [8-Br-cGMP, 8-bromo-cGMP], which EC50 ([1]; CON mice) is on record?
A: 95.2 ± 11 nM

Q: What about the EC50 ([1]; E24 F/+) of the same molecule?
A: 3 ± 2.5 nM

Q: And the EC50 ([1]; E24 F/F)?
A: 6 ± 1.5 nM

Q: What about the “maximal response to 8-Br-cGMP” value [1, 5] of the same molecule?
A: complete relaxation

Q: Which results are given for `CCN(CC)/[N+]([O-])=N/[O-].[Na+]` [DEA/NO]?
A: EC50 ([2]; E24 F/+ (cKO heterozygotes)): 3.3 ± 0.5 nM; EC50 ([2]; E24 F/F (cKO homozygotes)): 2.1 ± 0.5 nM; maximal response to DEA/NO [2, 5]: complete relaxation

Q: Which EC50 ([3]; 336 h, CON+HS (high salt 4% NaCl, 2 weeks)) does the source give for `CNC[C@H](O)c1cccc(O)c1` [PE, phenylephrine] here?
A: 1000 ± 500 nM

Q: What about the EC50 ([3]; CON mice) of the same molecule?
A: 500 ± 100 nM

Q: And the EC50 ([3]; CON+NS (normal salt diet))?
A: 900 ± 400 nM

Q: What about the EC50 ([3]; E24 F/+) of the same molecule?
A: 600 ± 200 nM

Q: And the EC50 ([3]; E24 F/F+HS)?
A: 3000 ± 1000 nM

Q: And the EC50 ([3]; E24 F/F+NS)?
A: 400 ± 200 nM

Q: What about the EC50 ([3]; E24 F/F) of the same molecule?
A: 900 ± 200 nM

B1: sgRNA6: guide RNA, target … (SEQ ID NO: 10); tested cloned in px601 SaCas9 plasmid (nucleic acid)
guide: GUAUCUGAAAGGUGACCGGCGUUUUAGUACUCUGGAAACAGAAUCUACUAAAACAAGGCAAAAUGCCGUGUUUAUCUCGUCAACUUGUUGGCGAGAUUUUU
Q: Which results are given for B1?
A: genome editing in vitro (in words) [4]: effective genome editing; Surveyor nuclease products (sizes) [4]: 250/500

B2: sgRNA11: guide RNA, target … (SEQ ID NO: 15); tested cloned in px601 SaCas9 plasmid (nucleic acid)
guide: GUUAUGUGUAGCAUUAAUGCAGUUUUAGUACUCUGGAAACAGAAUCUACUAAAACAAGGCAAAAUGCCGUGUUUAUCUCGUCAACUUGUUGGCGAGAUUUUU
Q: Which “genome editing in vitro (in words)” value [4] does the source give for B2 here?
A: effective genome editing

Q: What about the “Surveyor nuclease products (sizes)” value [4] of the same molecule?
A: 320/430

B3: sgRNA9: guide RNA, target … (SEQ ID NO: 13); tested cloned in px601 SaCas9 plasmid (nucleic acid)
guide: GAGAAUGCUUAUCAUUUAAGGGUUUUAGUACUCUGGAAACAGAAUCUACUAAAACAAGGCAAAAUGCCGUGUUUAUCUCGUCAACUUGUUGGCGAGAUUUUU
Q: Which results are given for B3?
A: genome editing in vitro (in words) [4]: effective genome editing; Surveyor nuclease products (sizes) [4]: 330/420

B4: sgRNA12: guide RNA, target … (SEQ ID NO: 16); tested cloned in px601 SaCas9 plasmid (nucleic acid)
guide: GAUACAAAGCUAUAAAGUCAGGUUUUAGUACUCUGGAAACAGAAUCUACUAAAACAAGGCAAAAUGCCGUGUUUAUCUCGUCAACUUGUUGGCGAGAUUUUU
Q: Which “genome editing in vitro (in words)” value [4] does the source give for B4 here?
A: effective genome editing

Q: And the “Surveyor nuclease products (sizes)” value [4]?
A: 270/480

B5: sgRNA5: guide RNA, target … (SEQ ID NO: 9); tested cloned in px601 SaCas9 plasmid (nucleic acid)
guide: GCAUUAUUUAUUAAUCUGGGAGUUUUAGUACUCUGGAAACAGAAUCUACUAAAACAAGGCAAAAUGCCGUGUUUAUCUCGUCAACUUGUUGGCGAGAUUUUU
Q: Which results are given for B5?
A: genome editing in vitro (in words) [4]: effective genome editing; Surveyor nuclease products (sizes) [4]: 120/630
